Measured values: patent US10829798B2, “DNA-linked enzyme-coupled assays” (THE REGENTS OF THE UNIVERSITY OF CALIFORNIA, priority 2014, dated 2020)

What was measured:
OleD [1] = target: T1, OleD (Streptomyces antibioticus, UniProt Q53685, P55A/R82V/R83E/T84P); assay: qPCR DLEnCA, cell-free transcription/translation-derived OleD; format: biochemical; details: OleD DNA 5 nM, UDP-Glc 2 μM, probe 0.2 nM; for significant loss in protection of the DNA probe: flavone 1 mM; for recovery of intact probe DNA: chemical 1 mM, low recovery = substrate glucosylated
T1 construct: made in house; host or cells: PURExpress In Vitro Protein Synthesis Kit (NEB E6800L), cell-free transcription/translation, linear DNA with T7 promoter
Description: (§1) FIG. 4A-FIG. 4D. qPCR DLEnCA and substrate specificity studies. A. Chemicals used as substrates in subsequent assays: (i) known substrates of OleD; (ii) flavone library; (iii) known substrates of GT05 (UGT72B1 (Q9M156)) and GT06 (UGT89B1 (AT1 G73880)). B. DNA encoding OleD (5 nM) was incubated in a cell-free transcription/translation system for 3 hours at 37° C., followed by the addition of chemical (1 mM) and UDP-Glc (2 μM). After a subsequent incubation of 3 hours, TbGT and probe (0.2 nM) were added. After probe purification and MfeI digestion, probe integrity was identified using qPCR. Percent recovery of probe is reported (n=8; error bars=standard error). C. DNA encoding OleD (5 nM) was incubated for 3 hours at 37° C. in a cell-free transcription/translation system, followed by the addition of flavone (1 mM) and UDP-Glc (2 μM). After a subsequent incubation of 3 hours, TbGT and probe (0.2 nM) were added. After probe purification and MfeI addition, probe integrity was identified using qPCR. Percent recovery of probe is reported (n=8; error bars=standard error). D. DNA encoding OleD, GT05, or GT06 (5 nM) were incubated for 3 hours at 37° C. in a cell-free transcription/translation system, followed by the addition of chemical (1 mM) and UDP-Glc (2 μM). After a subsequent incubation of 3 hours, TbGT and probe (0.2 nM) were added. After probe purification and MfeI digestion, probe integrity was identified using qPCR. Percent recovery of probe is reported as a heat map (n=8) (specific recovery figures and percent error can be found in FIG. 16). *=p<0.05 vs. no chemical control.
PCR tubes were used for most reactions. All incubations were performed at 37° C. Assays were initiated upon the addition of linear DNA (5 nM final concentration) to 4 μl PURExpress Solution A and 3 μl PURExpress Solution B. Samples were incubated at 37° C. for 3 hours prior to addition of UDP-Glucose and chemical (1 mM final concentration) in DMSO. Samples were incubated for an additional 3 hours prior to addition of 1 unit T4 Phage β-glucosyltransferase containing 0.2 nM probe. Samples were incubated an additional 3 hours before DNA was purified using the Zymo DNA Clean and Concentrator Kit. Samples were digested overnight with MfeI prior to analysis. Concentration of intact DNA probe was identified using the iQ SYBR Green Supermix (1708880) with probe DNA as standards. qPCR was carried out on the Bio-Rad iQ5 Multicolor Real-Time PCR Detection System using primers P13 and P14 with the following temperatures; 94° C. 30 seconds followed by 40 cycles of 94° C. 10 seconds and 55° C. for 30 seconds. All results were compared to uncut probe DNA that had been carried through the process as negative controls (considered full recovery of probe).
The second DLEnCA workflow developed involved qPCR as a final readout (qPCR DLEnCA, FIG. 1—qPCR workflow). A linear fragment of DNA was modified to contain 5-hm-cytosines throughout. To determine a threshold for probe protection under conditions amenable to the qPCR DLEnCA workflow, UDP-Glc was titrated into mixtures of the cell-free transcription/translation system containing 5-hm-cytosine-modified DNA probe (0.2 nM probe DNA containing 0.1 μM modified 5-hm-cytosines) and TbGT. After digestion with the restriction enzyme MfeI, the amount of intact DNA probe was determined using qPCR (FIG. 3C). […] A threshold for protection was identified at a 20:1 molar ratio of UDP-Glc to total 5-hm-cytosine in probe DNA; this UDP-Glc amount was used as the starting concentration of UDP-Glc for all qPCR experiments. To test the feasibility of qPCR DLEnCA, OleD was again tested upon the substrate kaempferol (FIG. 3D), using DNA encoding a promoter and OleD as starting material. As expected, when all components of the assay were present, 27% of intact probe DNA was recovered. […]

OleD [2] = target: T1, OleD; assay: LCMS analysis of OleD-catalyzed glucosylation in cell-free reactions; format: biochemical; details: equal-molar chemical and UDP-glucose, PURExpress, 3 hours at 37° C.
Excerpt: Determination of glucosylation was accomplished by means of an LCMS system consisting of an Agilent Technologies 1200 series HPLC with an Agilent Technologies 6520 Accurate Mass qTOF LC/MS. An Eclipse Plus C18 (4.6 mm×100 mm i.d., 3.5-μm packing, Agilent Technologies) reverse-phase column with a guard Zorbax Eclipse Plus C18 column ([…], 5 μm packing, Agilent Technologies) was used for separating the samples. Water+0.1% Formic Acid and Acetonitrile+0.1% Formic Acid were used as mobile phases at a flow rate of 500 μl/min. The elution gradient water/acetonitrile ratio) was ramped as follows: 98:2 (v/v) (0-2 min), 98:2-5:95 (v/v) linearly (2-17 min), 5:95 (v/v) (17-27 min), and 5:95-98-2 (v/v) (27-28 min). Full scanning mode (50-750 m/z) was used for data acquisition in a positive-ion mode, and the operation parameters were as follows: ESI probe capillary voltage, +3.5 kV with a scan rate of 1.01 scans/second. The nebulizer gas flow rate was 7 L/min. During the analysis two references (121.0509 m/z (C5H4N4) and 922.0098 m/z (C18H18O6N3P3F24)) were continuously measured to allow constant mass correction.
Samples were prepared directly from cell-free reactions. Equal-molar amounts of chemical and UDP-glucose were incubated with DNA encoding the glucosyltransferase of interest or water in PURExpress for 3 hours at 37° C. […]

OleD [3] = details: Williams 2007; Choi 2012; Yang 2005; cited from earlier work
GT05 (UGT72B1 (Q9M156)) = target: T2, GT05 (UGT72B1 (Q9M156)) (Arabidopsis thaliana, UniProt Q9M156); assay: qPCR DLEnCA, cell-free transcription/translation-derived GT05; format: biochemical; details: GT05 DNA 5 nM, chemical 1 mM, UDP-Glc 2 μM, probe 0.2 nM; low recovery = substrate glucosylated
T2 construct: made in house; host or cells: PURExpress In Vitro Protein Synthesis Kit (NEB E6800L), cell-free transcription/translation, linear DNA amplified from pET15b construct
T2 sequence (Q9M156 1-480): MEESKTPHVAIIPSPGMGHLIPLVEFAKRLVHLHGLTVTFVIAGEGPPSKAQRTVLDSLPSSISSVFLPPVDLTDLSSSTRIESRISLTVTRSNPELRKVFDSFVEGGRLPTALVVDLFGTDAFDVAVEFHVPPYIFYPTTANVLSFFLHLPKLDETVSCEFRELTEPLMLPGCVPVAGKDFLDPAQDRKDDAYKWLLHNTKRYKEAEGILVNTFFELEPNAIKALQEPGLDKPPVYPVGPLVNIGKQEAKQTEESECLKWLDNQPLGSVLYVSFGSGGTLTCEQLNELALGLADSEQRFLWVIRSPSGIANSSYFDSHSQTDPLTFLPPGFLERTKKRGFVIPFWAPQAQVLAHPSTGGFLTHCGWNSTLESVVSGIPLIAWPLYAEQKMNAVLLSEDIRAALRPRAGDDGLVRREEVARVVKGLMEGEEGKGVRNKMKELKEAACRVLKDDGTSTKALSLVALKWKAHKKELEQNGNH
Description: as §1
PCR tubes were used for most reactions. All incubations were performed at 37° C. Assays were initiated upon the addition of linear DNA (5 nM final concentration) to 4 μl PURExpress Solution A and 3 μl PURExpress Solution B. Samples were incubated at 37° C. for 3 hours prior to addition of UDP-Glucose and chemical (1 mM final concentration) in DMSO. Samples were incubated for an additional 3 hours prior to addition of 1 unit T4 Phage β-glucosyltransferase containing 0.2 nM probe. […]

[4] = target: T3, GT06 (UGT89B1 (AT1G73880)) (Arabidopsis thaliana, UniProt Q9C9B0); assay: qPCR DLEnCA, cell-free transcription/translation-derived GT06; format: biochemical; details: GT06 DNA 5 nM, chemical 1 mM, UDP-Glc 2 μM, probe 0.2 nM; low recovery = substrate glucosylated
T3 sequence (Q9C9B0 1-473): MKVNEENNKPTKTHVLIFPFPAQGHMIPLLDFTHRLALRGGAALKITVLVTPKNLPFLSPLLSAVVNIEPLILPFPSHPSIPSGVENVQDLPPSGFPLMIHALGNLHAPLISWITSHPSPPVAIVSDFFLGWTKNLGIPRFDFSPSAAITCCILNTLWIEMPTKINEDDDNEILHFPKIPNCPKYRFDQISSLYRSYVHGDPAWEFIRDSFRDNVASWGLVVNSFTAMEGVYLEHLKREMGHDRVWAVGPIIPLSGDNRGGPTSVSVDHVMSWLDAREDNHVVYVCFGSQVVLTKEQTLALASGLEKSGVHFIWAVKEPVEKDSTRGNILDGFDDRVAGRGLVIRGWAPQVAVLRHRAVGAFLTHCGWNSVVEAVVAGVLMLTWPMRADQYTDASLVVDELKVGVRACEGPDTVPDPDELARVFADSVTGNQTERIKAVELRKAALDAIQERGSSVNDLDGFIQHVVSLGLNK
Description: as §1, with “After probe purification and MfeI digestion, probe integrity was identified using qPCR. Percent recovery of probe is reported as a heat map (n=8) (specific recovery figures and percent error can be found in FIG. 16). *=p<0.05 vs. no chemical control.” left out

T1 sequence (Q53685 other isoform, or with tags, fused parts or gaps P55A/R82V/R83E/T84P): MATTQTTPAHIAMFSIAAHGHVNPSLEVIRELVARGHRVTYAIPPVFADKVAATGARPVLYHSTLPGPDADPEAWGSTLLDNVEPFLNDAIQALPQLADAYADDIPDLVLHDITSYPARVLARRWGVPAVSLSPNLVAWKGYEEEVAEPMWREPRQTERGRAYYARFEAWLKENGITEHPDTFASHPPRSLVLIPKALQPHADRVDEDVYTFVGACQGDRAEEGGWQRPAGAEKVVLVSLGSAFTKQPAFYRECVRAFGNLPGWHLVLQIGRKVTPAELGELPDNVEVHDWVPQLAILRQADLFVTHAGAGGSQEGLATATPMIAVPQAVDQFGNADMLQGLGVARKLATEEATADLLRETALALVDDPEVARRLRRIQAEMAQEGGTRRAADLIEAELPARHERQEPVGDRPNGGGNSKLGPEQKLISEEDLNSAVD

SMILES | recovery of intact probe DNA (OleD [1]) [%] | OleD substrate quality reported in previous studies (OleD [3]) | also measured
O=c1cc(-c2ccccc2)oc2cccc(O)c12 [VIII, 5-hydroxyflavone] | – | – | significant loss in protection of the DNA probe (OleD [1]): not the case
Cc1cc(=O)oc2cc(O)ccc12 [III, 4-methylumbelliferone] | 60 | slower rate or with less efficiency than with (I) | identification as OleD substrate by LCMS (OleD [2]): identified the chemicals as substrates
O=c1cc(-c2ccc(O)cc2)oc2cc(O)cc(O)c12 [II, apigenin] | 42 | slower rate or with less efficiency than with (I) | identification as OleD substrate by LCMS (OleD [2]): identified the chemicals as substrates
O=c1cc(-c2ccccc2)oc2cc(O)ccc12 [IX, 7-hydroxyflavone] | 39 | – | –
O=C(O)Cc1cc(=O)oc2cc(O)ccc12 [IV, 7-hydroxycoumarin-4-acetic acid] | 82 | very weak substrates | –
O=c1c(O)c(-c2ccccc2)oc2ccccc12 [VI, 3-hydroxyflavone] | 42 | – | –
O=C(O)c1cccc(O)c1 [X, 3-hydroxybenzoic acid] | – | – | recovery of probe (GT05 (UGT72B1 (Q9M156))): 33%
O=C(O)c1ccc(O)c(O)c1 [XII, 3,4-dihydroxybenzoic acid] | – | – | recovery of probe (GT05 (UGT72B1 (Q9M156))): 40%; recovery of probe [4]: 30%
O=C(O)c1cc2ccc(O)cc2oc1=O [V, 7-hydroxycoumarin-3-carboxylic acid] | 97 | very weak substrates | –
O=c1cc(-c2ccc(O)cc2)oc2ccccc12 [VII, 4-hydroxyflavone] | – | – | significant loss in protection of the DNA probe (OleD [1]): not the case
